In assay [1] the test system is 16- to 32-cell pre-compacted (in vitro-produced) embryos. The assay is described as follows: Culture of pre-compacted (in vitro-produced) embryos with PGF2α or PGE2. It is filed as cell-based, bovine. The settings on record: vs control. As to the method:
Embryos are produced by a modified protocol for in vitro production of embryos described by Edwards and Hansen, Biol. Reprod. 55:340-346 (1996). Pre-compacted 16- to 32-cell stage embryos are rapidly washed in KSOM media (Biggers, J. D. 1991. J. Reprod. Fertil. 91:543) supplemented with polyvinyl alcohol (PVA) 3 mg/ml (0.3%). The embryos are evaluated for quality (normal shape, defined blastomeres, extruded blastomeres, cytoplasmic fragmentation, even cytoplasm), are evenly sorted in four groups (formed by embryos of good quality), are transferred to experimental treatments in a 4-well plate as described below, and are returned to the incubator (5.5% CO2, 7% O2, and 87.5% N2 at 38.5° C.). Embryos remain in each treatment for 4 additional days. Embryo development is assessed using IETS (International Embryo Transfer Society) guidelines for classification of bovine embryos.
Dilutions (i.e., treatments) of PGF2α (Cayman Chemical Co.; Ann Arbor, Mich.) are prepared to obtain 0, 1, 10 and 100 ng/mL. Treatments are placed in each well of a 4-well plate (500 μL/well) and equilibrated in the incubator (5.5% CO2, 7% O2, and 87.5% N2 at 38.5° C.) for at least 5 h prior to embryo placement. […]
Data are analyzed to test for blastocyst development and hatching rates using an incomplete block design and a randomized block design, respectively. […]

The next assay deals with recipient cattle. As to conditions: intramuscular injection immediately prior to or after non-surgical embryo transfer; vs controls; cited from earlier work.
Assay [2] relates to compacted (in vivo-derived) morula stage embryos. The assay is described as follows: Culture of compacted (in vivo-derived) morula-stage embryos with PGF2α. Format: cell-based, bovine. The settings on record: 0.1, 1 or 10 ng/mL PGF2α for 24 h. As to the method:
In vivo-derived glycerol-frozen morula-stage bovine embryos are thawed utilizing a three-step glycerol removal procedure. After washing, embryos are allowed to regain normal morphology for 30 min in Vigro holding medium and are sorted by stage of development and quality according with the IETS guidelines for classification of bovine embryos. For this study, a total of 4 replicates are used.
Schrick, et al, Biol. Reprod. 49:617-621 (1993) reported 0.64 ng/mL of PGF2α in flush media from short cycle cows and a negative association of PGF2α concentration with embryo quality. Based on these findings, concentrations of 0 (control, KSOM-PVA), 0.1, 1, and 10 ng/mL of PGF2α in culture medium are selected as treatments. Each treatment is placed in a different well of a 4-well plate (500 μL/well) and then maintained in the incubator (5.5% CO2, 7% O2, and 87.5% N2 at 38.5° C.) for at least 5 h before placement of embryos to allow equilibration of medium. […]
Morula embryos (Stage 4) of quality grade 1, 2 or 3 are rapidly washed four times in KSOM-PVA and randomly assigned to one of four treatments: 1) control (n=110); 2) 0.1 ng/mL PGF2α (n=108); 3) 1 ng/mL PGF2α (n=109), 4) 10 ng/mL PGF2α (n=109) and are placed in the incubator (5.5% CO2, 7% O2, and 87.5% N2 at 38.5° C.). […] Data are analyzed as in Example 1.a.

Assay [3] has as its system progestin-supplemented cows. As to conditions: cited from earlier work.
For assay [4], the system named is Pre-compacted 16- to 32-cell stage bovine embryos. As to conditions: 1 ng/ml PGF on days 4 to 6 (48 h culture).
Description: Pre-compacted 16- to 32-cell stage bovine embryos (day 4 post fertilization) are washed in KSOM-PVA and divided into four groups, each of which is cultured for 48 hours in KSOM-PVA containing one of the following: (1) 1000 nM AL-8810, n=95 (AL-8810 group); (2) 1 ng/ml PGF, n=91 (PGF group); (3) 1000 nM AL-8810+1 ng/ml PGF, n=90 (AL-8810+PGF group); or (4) KSOM-PVA without AL-8810 or PGF, n=84 (Control group).
Following the 48 hour culture, embryos from each group are placed in HEPES-TALP and embryonic development is assessed by a technician who is uninformed of the treatments of the embryos in each group. Embryos from each treatment group are washed in KSOM-PVA and transferred to a 4-well plate with KSOM-PVA for further culture until day 8 post fertilization, when embryonic development is again assessed.

Where two headings read alike, the source gives them in different places.

On to `CCCCC[C@H](O)/C=C/[C@H]1[C@H](O)CC(=O)[C@@H]1C/C=C\CCCC(=O)O` [PGE2, Prostaglandin E2], for which, in assay [1] (5 ng/mL PGE2 in medium, P>0.10), the blastocyst development entry is “does not differ between control and PGE2 treatments”.
For the compound `Cc1c(Nc2ncccc2C(=O)O)cccc1C(F)(F)F` [flunixin meglamine], the pregnancy rates entry with recipient cattle is recorded as “Pregnancy rates were significantly higher”.
Turning to prostaglandin F2α [PGF2α], in assay [1] (1, 10 or 100 ng/mL PGF2α in medium, 4 days culture, P=0.002), the blastocyst development entry is on record as “reduced blastocyst development when compared to control”. Further, in assay [2] (then 48 h without, P>0.10), the “development at least two stages beyond morula (IETS guidelines)” value is on record as “does not differ between treatments”. The hatching rates result in assay [2] (vs control, P=0.05) is on record as “decreased hatching rates when compared to control”. Further, the pregnancy rates entry in assay [3] (PGF2α administered between days 5 and 8 of pregnancy, vs saline controls) is listed as “decreased pregnancy rates compared to saline controls”; in assay [3] (PGF2α administered on days 10 to 13 or days 15 to 18), “no effect on pregnancy rates”. For the same compound, the “percentage of embryos reaching blastocyst stage on day 8” value in assay [4] is listed as “decreases the percentage of embryos reaching blastocyst stage on day 8”.
